Data reported in the NIST ThermoML archive (doi:10.1021/je900478c).

Experiment: xn = mol fraction of the nth substance listed
Settings: 101 kPa, Liquid; for viscosity: Capillary tube (Ostwald / Ubbelohde) method

CCCCOCCO [2-butoxyethan-1-ol] + O
Settings	mass density, 283.15 K [kg/m3]	mass density, 293.15 K [kg/m3]	mass density, 303.15 K [kg/m3]	mass density, 313.15 K [kg/m3]	mass density, 323.15 K [kg/m3]	viscosity, 283.15 K [mPa·s]	viscosity, 293.15 K [mPa·s]	viscosity, 303.15 K [mPa·s]	viscosity, 313.15 K [mPa·s]	viscosity, 323.15 K [mPa·s]
x1 = 0.0005	999.62	998.13	995.57	992.12	–	–	–	–	–	–
x1 = 0.001	999.53	998.01	995.46	992.02	–	–	–	–	–	–
x1 = 0.00201	999.43	997.89	995.29	991.8	–	–	–	–	–	–
x1 = 0.003	999.37	997.78	995.12	991.58	–	–	–	–	–	–
x1 = 0.00399	999.24	997.6	994.89	991.31	–	–	–	–	–	–
x1 = 0.005	999.06	997.34	994.59	990.98	–	–	–	–	–	–
x1 = 0.00601	998.89	997.11	994.27	990.64	–	–	–	–	–	–
x1 = 0.00699	998.86	996.97	994.06	990.36	–	–	–	–	–	–
x1 = 0.00801	998.8	996.83	993.86	990.11	–	–	–	–	–	–
x1 = 0.00896	998.72	996.7	993.69	989.86	–	–	–	–	–	–
x1 = 0.00998	998.68	996.57	993.5	989.6	–	–	–	–	–	–
x1 = 0.01102	998.64	996.43	993.3	989.31	–	–	–	–	–	–
x1 = 0.01209	998.59	996.3	993.09	988.99	–	–	–	–	–	–
x1 = 0.01317	998.55	996.16	992.85	988.65	–	–	–	–	–	–
x1 = 0.01401	998.49	996.02	992.63	988.37	–	–	–	–	–	–
x1 = 0.01499	998.49	995.91	992.38	988.01	–	–	–	–	–	–
x1 = 0.01959	998.45	994.9	990.79	985.95	–	–	–	–	–	–
x1 = 0.02529	997	992.94	988.38	983.21	–	–	–	–	–	–
x1 = 0.0307	995.31	990.88	986.03	980.66	–	–	–	–	–	–
x1 = 0.03495	993.94	989.28	984.22	978.71	–	–	–	–	–	–
x1 = 0.04047	992.16	987.22	981.99	976.24	–	–	–	–	–	–
x1 = 0.04524	990.59	985.5	980.12	974.25	–	–	–	–	–	–
x1 = 0.04961	989.23	983.99	978.47	972.5	–	–	–	–	–	–
x1 = 0.05991	986.08	980.54	974.75	968.52	–	–	–	–	–	–
x1 = 0.06979	983.28	977.49	971.48	965.02	–	–	–	–	–	–
x1 = 0.07979	980.63	974.61	968.38	961.77	–	–	–	–	–	–
x1 = 0.08979	978.05	971.87	965.46	958.67	–	–	–	–	–	–
x1 = 0.1003	975.52	969.12	962.59	955.66	–	5.489	3.791	2.772	2.126	–
x1 = 0.2	957.51	950.15	942.62	934.8	926.83	7.107	4.854	3.483	2.584	1.979
x1 = 0.3	945.28	937.5	929.57	921.47	913.23	7.415	5.079	3.64	2.698	2.054
x1 = 0.4	935.77	927.76	919.6	911.3	902.87	7.234	4.994	3.594	2.672	2.038
x1 = 0.5	928.69	920.54	912.16	903.78	895.22	6.83	4.761	3.448	2.583	1.981
x1 = 0.6	923.16	914.96	906.6	898.14	889.56	6.352	4.476	3.272	2.465	1.901
x1 = 0.7	918.7	910.49	902.02	893.57	884.96	5.857	4.172	3.079	2.337	1.813
x1 = 0.7999	915.01	906.78	898.3	889.84	881.26	5.36	3.865	2.879	2.205	1.721
x1 = 0.9	912.08	903.8	895.3	886.83	878.23	4.885	3.56	2.679	2.068	1.629
x1 = 1	909.49	901.18	892.68	884.21	875.6	4.46	3.288	2.499	1.946	1.543
